The term inhibition denotes the change of the read-out against control, counted positive when it falls. What is called EC50 is the concentration giving half of the maximal effect. As usually defined, the IC50 is the concentration at which inhibition is half-maximal. The melting point is the temperature, or range, at which the solid turns liquid.

Like-named read-outs stand apart in the source and are kept apart here.

The test system of data set [1] is SARS-CoV-2 isolate EGY/WAT-2 VACCERA. Put plainly: microbe, parasite or virus in culture. The format is cell-based. Conditions: for inhibition at 10 µM: Severe acute respiratory syndrome coronavirus 2, Vero C1008, 10 uM; for (API) Antiviral potency index: ratio of the inhibition % of the tested compound to that of Remdesivir at 10 μM, 1 = identical effect.
In the next data set the target is T1, SARS-CoV-2 Mpro (Severe acute respiratory syndrome coronavirus 2, UniProt P0DTD1).
T1 construct: purchased BPS Bioscience
The experiment in a line: SARS-CoV-2 Mpro inhibition assay (BPS Bioscience, FRET peptide). The data set is classed as biochemical.

Data set [2] relates to SARS-CoV-2. The arrangement: method as in PMID 36986562. The note with it: 10 µM, Vero 6 cells; cited from earlier work.
A further data set deals with main protease Mpro. The arrangement: method as in PMID 36986562. The note with it: read-out: IC50 of main protease Mpro inhibition; cited from earlier work.
Another data set concerns COVID-19. The arrangement: method as in PMID 34914868. The note with it: adult patients with mild-to-moderate COVID-19, not hospitalized, phase-3; cited from earlier work.
The test system of data set [3] is SARS-CoV-2. Also noted: method as in PMID 34750163. Conditions: ritonavir and Nirmatrelvir used in conjunction; cited from earlier work.
The test system of another data set is Vero E6 cells. Put plainly: Cytotoxicity evaluation using MTT viability assay. Conditions: Vero E6 cytotoxicity IC50 compared with the antiviral activity maximum concentration (10 mM printed in footnote, 10 uM in text). In general terms: Tetrazolium assays rely on reduction of a dye to a coloured formazan, in cell work by metabolically active cells.
[4] abbreviates: Severe acute respiratory syndrome coronavirus 2, Vero C1008, 1 uM, infected Vero E6 cells, read-out: % of inhibition of SARS CoV-2.
[5] abbreviates: in vitro enzyme assay, read-out: IC50 against SARS-CoV-2 Mpro.

The molecule `O=C(Cn1cc(COc2ccc(/C=N/N3C(=O)c4ccccc4C3=O)cc2)nn1)Nc1ccc(C(=O)O)cc1` [Compound 6a, (E)-4–(2-(4-((4-(((1,3-dioxoisoindolin-2-yl)imino)methyl)phenoxy)methyl)-1H-1,2,3-triazol-1-yl)acetamido)benzoic acid] registered a melting point of 264 to 265 °C. Moreover, the “% of inhibition of SARS CoV-2” value in data set [1] (10 uM, infected Vero E6 cells) is given as 94.96%. The molecule also gave an inhibition at 0.01 µM in data set [1] (Severe acute respiratory syndrome coronavirus 2, Vero C1008, 0.01 uM) of about 40%. Moreover, the inhibition at 1 µM in data set [1] (setting [4]) was 87.8%. Also, the inhibition at 10 µM in data set [1] (infected Vero E6 cells) amounted to 94%. For the same molecule, in data set [1] (Severe acute respiratory syndrome coronavirus 2, Vero C1008, dose-response at five concentrations starting from 10 uM, read-out: EC50 of virus inhibition), the EC50 is 0.038 µM. In data set [1], the “(API) Antiviral potency index” value was 0.98. In addition, the IC50 on SARS-CoV-2 Mpro (setting [5]) worked out at 113 ± 5.75 µM.
As for `O=C(Cn1cc(COc2ccc(/C=N/N3C(=O)c4ccccc4C3=O)cc2)nn1)Nc1ccccc1I` [Compound 6b, (E)-2–(4-((4-(((1,3-dioxoisoindolin-2-yl)imino)methyl)phenoxy)methyl)-1H-1,2,3-triazol-1-yl)-N-(2-iodophenyl) acetamide], the melting point was in the range of 213 to 214 °C. Besides, the “(API) Antiviral potency index” value in data set [1] worked out at 0.97.
As for `O=C(Cn1cc(COc2ccc(/C=N/N3C(=O)c4ccccc4C3=O)cc2)nn1)Nc1ccc(I)cc1F` [Compound 6c, (E)-2–(4-((4-(((1,3-dioxoisoindolin-2-yl)imino)methyl)phenoxy)methyl)-1H-1,2,3-triazol-1-yl)-N-(2-fluoro-4-iodophenyl)acetamide], the melting point was in the range of 228 to 229 °C. Besides, the “(API) Antiviral potency index” value in data set [1] was found to be 0.96.
In the case of `O=C(Cn1cc(COc2ccc(/C=N/N3C(=O)c4ccccc4C3=O)cc2)nn1)Nc1ccc([N+](=O)[O-])cc1` [Compound 6d, (E)-2–(4-((4-(((1,3-dioxoisoindolin-2-yl)imino)methyl)phenoxy)methyl)-1H-1,2,3-triazol-1-yl)-N-(4-nitrophenyl)acetamide], the melting point is 242 to 243 °C. For the same molecule, the “(API) Antiviral potency index” value in data set [1] worked out at 0.98.
Molecule `O=C(Cn1cc(COc2ccc(/C=N/N3C(=O)c4ccccc4C3=O)cc2)nn1)Nc1ccc(F)cc1` [Compound 6e, (E)-2–(4-((4-(((1,3-dioxoisoindolin-2-yl)imino)methyl)phenoxy)methyl)-1H-1,2,3-triazol-1-yl)-N-(4-fluorophenyl) acetamide] gave a melting point of 219 to 220 °C. In addition, in data set [1], the “(API) Antiviral potency index” value is reported as 0.96.
Regarding `Cc1ccc(CNC(=O)Cn2cc(COc3ccc(/C=N/N4C(=O)c5ccccc5C4=O)cc3)nn2)cc1` [Compound 6f, (E)-2–(4-((4-(((1,3-dioxoisoindolin-2-yl)imino)methyl)phenoxy)methyl)-1H-1,2,3-triazol-1-yl)-N-(4-methylbenzyl) acetamide], the melting point is 201 to 202 °C. Besides, the “(API) Antiviral potency index” value in data set [1] turned out to be 0.92.
The molecule `O=C(Cn1cc(COc2ccc(/C=N/N3C(=O)c4ccccc4C3=O)cc2)nn1)NCc1ccc(F)cc1` [Compound 6g, (E)-2–(4-((4-(((1,3-dioxoisoindolin-2-yl)imino)methyl)phenoxy)methyl)-1H-1,2,3-triazol-1-yl)-N-(4-fluorobenzyl) acetamide] yielded an inhibition at 10 µM in data set [1] (infected Vero E6 cells) of 94%. Also, the “(API) Antiviral potency index” value in data set [1] is 0.97. In addition, on SARS-CoV-2 Mpro (setting [5]), the IC50 was 90.1 ± 4.59 µM.
Take `O=C(Cn1cc(COc2ccc(/C=N/N3C(=O)c4ccccc4C3=O)cc2)nn1)NCc1ccc(Cl)cc1` [Compound 6h, (E)-N-(4-chlorobenzyl)-2–(4-((4-(((1,3-dioxoisoindolin-2-yl)imino)methyl)phenoxy)methyl)-1H-1,2,3-triazol-1-yl)acetamide]: the melting point is 208 to 209 °C. Also, in data set [1], the “(API) Antiviral potency index” value is given as 0.95.
On the same counts, the results for `O=C1c2ccccc2C(=O)N1/N=C/c1ccc(OCc2cn(-c3ccc(F)cc3)nn2)cc1` [Compound 8a, (E)-2-((4-((1–(4-fluorophenyl)-1H-1,2,3-triazol-4-yl)methoxy)benzylidene)amino) isoindoline-1,3-dione] are 238 to 239 °C and 0.96.
Turning to `O=C(O)c1ccc(-n2cc(COc3ccc(/C=N/N4C(=O)c5ccccc5C4=O)cc3)nn2)cc1` [Compound 8b, (E)-4–(4-((4-(((1,3-dioxoisoindolin-2-yl)imino)methyl)phenoxy)methyl)-1H-1,2,3-triazol-1-yl)benzoic acid], the melting point lay within 287 to 288 °C. In data set [1], the “(API) Antiviral potency index” value is 0.91.
For the molecule `O=C1c2ccccc2C(=O)N1/N=C/c1ccc(OCc2cn(-c3ccccc3F)nn2)cc1` [Compound 8e, (E)-2-((4-((1–(2-fluorophenyl)-1H-1,2,3-triazol-4-yl)methoxy)benzylidene)amino)isoindoline-1,3-dione], the melting point is 248 to 249 °C. The inhibition at 1 µM in data set [1] (setting [4]) was 83.6%. For the same molecule, in data set [1], the “(API) Antiviral potency index” value worked out at 0.98.
In turn, `CCOC(=O)c1ccc(-n2cc(COc3ccc(/C=N/N4C(=O)c5ccccc5C4=O)cc3)nn2)cc1` [Compound 8f, ethyl (E)-4–(4-((4-(((1,3-dioxoisoindolin-2-yl)imino)methyl)phenoxy)methyl)-1H-1,2,3-triazol-1-yl)benzoate] came in with a melting point of 224 to 225 °C. In data set [1], the “(API) Antiviral potency index” value stood at 0.91.
Consider `O=C1c2ccccc2C(=O)N1/N=C/c1ccc(OCc2cn(-c3ccc(Cl)c(Cl)c3)nn2)cc1` [Compound 8g, (E)-2-((4-((1–(3,4-dichlorophenyl)-1H-1,2,3-triazol-4-yl)methoxy)benzylidene)amino)isoindoline-1,3-dione], for which, in data set [1], the “(API) Antiviral potency index” value came to 0.96.
With `CC(=O)c1ccc(-n2cc(COc3ccc(/C=N/N4C(=O)c5ccccc5C4=O)cc3)nn2)cc1` [Compound 8h, (E)-2-((4-((1–(4-acetylphenyl)-1H-1,2,3-triazol-4-yl)methoxy)benzylidene)amino)isoindoline-1,3-dione], the melting point was in the range of 275 to 276 °C. Moreover, the “(API) Antiviral potency index” value in data set [1] was 0.96.
Take `CC(=O)OC[C@@H]1O[C@H](n2cc(COc3ccc(/C=N/N4C(=O)c5ccccc5C4=O)cc3)nn2)[C@@H](OC(C)=O)[C@H](OC(C)=O)[C@H]1OC(C)=O` [Compound 10a, (2S,3S,4R,5S,6S)-2-(acetoxymethyl)-6–(4-((4-((E)-((1,3-dioxoisoindolin-2-yl)imino)methyl)phenoxy)methyl)-1H-1,2,3-triazol-1-yl)tetrahydro-2H-pyran-3,4,5-triyl triacetate]: the melting point fell in the range of 166 to 167 °C. The “(API) Antiviral potency index” value in data set [1] turned out to be 0.92. For the same molecule, the concentration for half-maximal inhibition (IC50) at SARS-CoV-2 Mpro (setting [5]) worked out at 1090 ± 55.5 µM.
Regarding `CC(=O)OC[C@@H]1O[C@H](n2cc(COc3ccc(/C=N/N4C(=O)c5ccccc5C4=O)cc3)nn2)[C@@H](OC(C)=O)[C@H](OC(C)=O)[C@@H]1OC(C)=O` [Compound 10b, (2S,3R,4R,5S,6S)-2-(acetoxymethyl)-6–(4-((4-((E)-((1,3-dioxoisoindolin-2-yl)imino)methyl)phenoxy)methyl)-1H-1,2,3-triazol-1-yl)tetrahydro-2H-pyran-3,4,5-triyl triacetate], in data set [1], the “(API) Antiviral potency index” value is given as 0.90.
Turning to `CC1=NN(c2ccc(Cl)cc2)C(=O)/C1=C\c1ccc(OCc2cn(CC(=O)Nc3ccc(C(=O)O)cc3)nn2)cc1` [Compound 11], the “inhibition of SARS-CoV-2 growth” value in the data set with SARS-CoV-2 [2] was 63.39 ± 0.48%. Further, the IC50 in the data set on main protease Mpro was 3.16 ± 1.2 µM.
The molecule `Cc1cccc(C)c1OCC(=O)N[C@@H](Cc1ccccc1)[C@@H](O)C[C@H](Cc1ccccc1)NC(=O)[C@H](C(C)C)N1CCCNC1=O` [Lopinavir, reference compound] registered an IC50 on SARS-CoV-2 Mpro of 149 ± 7.48 µM.
For the molecule `CC(C)C(=O)OC[C@H]1O[C@@H](n2ccc(NO)nc2=O)[C@H](O)[C@@H]1O` [Moldupiravir], in the data set on COVID-19, the “reduction of the risk of death or hospitalisation” value was 30%.
Turning to `CC(C)(C)[C@H](NC(=O)C(F)(F)F)C(=O)N1C[C@H]2[C@@H]([C@H]1C(=O)N[C@H](C#N)C[C@@H]1CCNC1=O)C2(C)C` [Nirmatrelvir], the “decrease in hospitalisation or mortality” value in the data set on SARS-CoV-2 [3] is recorded as 89%.
Regarding `CCC(CC)COC(=O)[C@H](C)N[P@](=O)(OC[C@H]1O[C@@](C#N)(c2ccc3c(N)ncnn23)[C@H](O)[C@@H]1O)Oc1ccccc1` [Remdesivir, reference compound], in data set [1] (Severe acute respiratory syndrome coronavirus 2, Vero C1008, read-out: % of inhibition of SARS CoV-2), the inhibition at 1 µM amounted to 92.7%. The EC50 in data set [1] (Severe acute respiratory syndrome coronavirus 2, Vero C1008, read-out: EC50 of virus inhibition) came out at 0.029 µM. In the data set with Vero E6 cells, the “CT/A Cytotoxicity/activity parameter” value is 4.31.
In the case of “(E)-2-((4-((1–(3-fluoro-4-methylphenyl)-1H-1,2,3-triazol-4-yl)methoxy)benzylidene)amino) Isoindoline-1,3-dione [Compound 8d]”, the “(API) Antiviral potency index” value in data set [1] was found to be 0.92.
For the molecule “(E)-2-((4-((1–(4-nitrophenyl)-1H-1,2,3-triazol-4-yl)methoxy)benzylidene)amino)isoindoline-1,3-dione [Compound 8c]”, in data set [1], the “(API) Antiviral potency index” value is given as 0.96. The “CT/A Cytotoxicity/activity parameter” value in the data set with Vero E6 cells was determined as 8.62.

These data come from publication PMC11164105, “Exploring of N-phthalimide-linked 1,2,3-triazole analogues with promising -anti-SARS-CoV-2 activity: synthesis, biological screening, and molecular modelling studies” (Journal of Enzyme Inhibition and Medicinal Chemistry, 2024).
